Measured values reported in patent US8163771B2, “11 β-HSD1 modulators” (Exelixis, Inc., priority 2008, dated 2012).
pIC50: −log10 of the molar value.

What follows are molecules tested against T1, recombinant human 11 β-HSD1 (Homo sapiens, UniProt P28845) (assay: 11 β-HSD1 SPA Assay (Scintillation Proximity Assay)).
T1 construct: made in house; host or cells: E. coli
Type: biochemical
Outline: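 Scintillation proximity read-out of cortisol formed from 40 nM [3H]cortisone by purified recombinant human enzyme (30-100 nM, E. coli) with 1 mM NADPH, pH7.4, 2 hours at room temperature; beads with cortisol antibody and glycyrrhetinic acid stop the reaction, read next day. IC50 derived from inhibition normalised to background and maximal wells.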

T1 sequence (P28845 whole entry): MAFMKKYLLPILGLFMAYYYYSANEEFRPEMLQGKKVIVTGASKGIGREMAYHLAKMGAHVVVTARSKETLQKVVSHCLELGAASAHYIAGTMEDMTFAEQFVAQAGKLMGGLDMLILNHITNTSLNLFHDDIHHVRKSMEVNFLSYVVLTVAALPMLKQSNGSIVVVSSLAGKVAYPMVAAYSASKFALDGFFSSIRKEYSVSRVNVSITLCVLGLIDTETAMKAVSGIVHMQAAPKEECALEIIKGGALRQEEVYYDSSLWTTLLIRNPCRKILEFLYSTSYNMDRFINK

Row | Structure (SMILES) | pIC50
1 | CC(C)(Oc1ccc(Cl)cn1)C(=O)N[C@H]1C[C@H]2CC[C@@H](C1)N2c1ccc(C(=O)NCC(F)(F)F)cn1 [Example 108, 6-[3-endo-({2-[(5-chloropyridin-2-yl)oxy]-2-methylpropanoyl}amino)-8-azabicycio[3.2.1]oct-8-yl]-N-(2,2,2-trifluoroethyl)pyridine-3-carboxamide] | > 6.70
2 | CC(C)(Oc1ccc(F)cn1)C(=O)N[C@H]1C[C@H]2CC[C@@H](C1)N2c1ccc(C(=O)NCC(F)(F)F)cn1 [Example 109, 6-[3-endo-({2-[(5-fluoropyridin-2-yl)oxy]-2-methylpropanoyl}amino)-8-azabicyclo[3.2.1]oct-8-yl]-N-(2,2,2-trifluoroethyl)pyridine-3-carboxamide] | > 6.70
3 | CC(C)(Oc1ccc(Cl)cc1Cl)C(=O)N[C@H]1C[C@H]2CC[C@@H](C1)N2c1ccc(C(=O)NCC(F)(F)F)cc1 [Example 110, 4-[3-endo-({2-[(2,4-dichlorophenyl)oxy]-2-methylpropanoyl}amino)-8-azabicyclo[3.2.1]oct-8-yl]-N-(2,2,2-trifluoroethyl)benzamide] | > 6.70
4 | CC(C)(Oc1ccc(C(F)(F)F)cc1)C(=O)N[C@H]1C[C@H]2CC[C@@H](C1)N2c1ccc(C(=O)NCC(F)(F)F)cn1 [Example 111, 6-{3-endo-[(2-methyl-2-{[4-(trifluoromethyl)phenyl]oxy}propanoyl)amino]-8-azabicyclo[3.2.1]oct-8-yl}-N-(2,2,2-trifluoroethyl)pyridine-3-carboxamide] | > 6.70
5 | CC(C)(Oc1ccccc1C(F)(F)F)C(=O)N[C@H]1C[C@H]2CC[C@@H](C1)N2c1ccc(C(=O)NCC(F)(F)F)cn1 [Example 112, 6-{3-endo-[(2-methyl-2-{[2-(trifluoromethyl)phenyl]oxy}propanoyl)amino]-8-azabicyclo[3.2.1]oct-8-yl}-N-(2,2,2-trifluoroethyl)pyridine-3-carboxamide] | > 6.70
6 | CC(C)(Oc1ccccc1C(F)(F)F)C(=O)N[C@H]1C[C@H]2CC[C@@H](C1)N2c1ccc(C(=O)NC2CC2)cn1 [Example 113, N-cyclopropyl-6-{3-endo-[(2-methyl-2-{[2-(trifluoromethyl)phenyl]oxy}propanoyl)amino]-8-azabicyclo[3.2.1]oct-8-yl}pyridine-3-carboxamide] | > 6.70
7 | CC(C)(Oc1ccc(Cl)cc1Cl)C(=O)N[C@H]1C[C@H]2CC[C@@H](C1)N2c1ccc(-c2nnn[nH]2)cn1 [Example 114, 2-[(2,4-dichlorophenyl)oxy]-2-methyl-N-{8-[5-(1H-tetrazol-5-yl)pyridin-2-yl]-8-azabicyclo[3.2.1]oct-3-endo-yl}propanamide] | > 6.70
8 | CC(=O)Nc1ccc(N2[C@@H]3CC[C@H]2C[C@@H](NC(=O)C(C)(C)Oc2ccc(Cl)cc2Cl)C3)cc1 [Example 115, N-{8-[4-(acetylamino)phenyl]-8-azabicyclo[3.2.1]oct-3-endo-yl}-2-[(2,4-dichlorophenyl)oxy]-2-methylpropanamide] | > 6.70
9 | CC(C)(Oc1ccc(Cl)cc1Cl)C(=O)N[C@H]1C[C@H]2CC[C@@H](C1)N2c1ccc(NC(=O)C(F)(F)F)cc1 [Example 116, 2-[(2,4-dichlorophenyl)oxy]-2-methyl-N-(8-{4-[(trifluoroacetyl)amino]phenyl}-8-azabicyclo[3.2.1]oct-3-endo-yl)propanamide] | > 6.70
10 | CC(C)(Oc1ccc(Cl)cc1Cl)C(=O)N[C@H]1C[C@H]2CC[C@@H](C1)N2c1ccc(C(=O)NCC(F)(F)F)cc1Cl [Example 117, 3-chloro-4-[3-endo-({2-[(2,4-dichlorophenyl)oxy]-2-methylpropanoyl}amino)-8-azabicyclo[3.2.1]oct-8-yl]-N-(2,2,2-trifluoroethyl)benzamide] | > 6.70
11 | O=C(NC1CC1)c1ccc(N2[C@@H]3CC[C@H]2C[C@@H](NC(=O)C2(c4ccc(Cl)cc4)CC2)C3)c(Cl)c1 [Example 118, 3-chloro-4-[3-endo-({[1-(4-chlorophenyl)cyclopropyl]carbonyl}amino)-8-azabicyclo[3.2.1]oct-8-yl]-N-cyclopropylbenzamide] | > 6.70
12 | O=C(NC1CC1)c1ccc(N2[C@@H]3CC[C@H]2C[C@@H](NC(=O)C2(c4ccc(Cl)cc4)CC2)C3)cc1F [Example 119, 4-[3-endo-({[1-(4-chlorophenyl)cyclopropyl]carbonyl}amino)-8-azabicyclo[3.2.1]oct-8-yl]-N-cyclopropyl-2-fluorobenzamide] | > 6.70
13 | CC(C)(Oc1ccc(Cl)cc1Cl)C(=O)N[C@H]1C[C@H]2CC[C@@H](C1)N2c1ccc(S(C)(=O)=O)cc1 [Example 120, 2-[(2,4-dichlorophenyl)oxy]-2-methyl-N-{8-[4-(methylsulfonyl)phenyl]-8-azabicyclo[3.2.1]oct-3-endo-yl}propanamide] | > 6.70
14 | O=C(NCC(F)(F)F)c1ccc(N2[C@@H]3CC[C@H]2C[C@@H](NC(=O)C2(c4ccc(F)c(F)c4)CC2)C3)nc1 [Example 121, 6-[3-endo-({[1-(3,4-difluorophenyl)cyclopropyl]carbonyl}amino)-8-azabicyclo[3.2.1]oct-8-yl]-N-(2,2,2-trifluoroethyl)pyridine-3-carboxamide] | > 6.70
15 | O=C(NCC(F)(F)F)c1ccc(N2[C@@H]3CC[C@H]2C[C@@H](NC(=O)C2(c4cccc(Cl)c4)CC2)C3)nc1 [Example 122, 6-[3-endo-({[1-(3-chlorophenyl)cyclopropyl]carbonyl}amino)-8-azabicyclo[3.2.1]oct-8-yl]-N-(2,2,2-trifluoroethyl)pyridine-3-carboxamide] | > 6.70
16 | O=C(NCC(F)(F)F)c1ccc(N2[C@@H]3CC[C@H]2C[C@@H](NC(=O)C2(c4cccc(F)c4)CC2)C3)nc1 [Example 123, 6-[3-endo-({[1-(3-fluorophenyl)cyclopropyl]carbonyl}amino)-8-azabicyclo[3.2.1]oct-8-yl]-N-(2,2,2-trifluoroethyl)pyridine-3-carboxamide] | > 6.70
17 | CC(C)(Oc1ncc(Cl)cc1Cl)C(=O)N[C@H]1C[C@H]2CC[C@@H](C1)N2c1ccc(C(N)=O)cn1 [Example 124, 6-[3-endo-({2-[(3,5-dichloropyridin-2-yl)oxy]-2-methylpropanoyl}amino)-8-azabicyclo[3.2.1]oct-8-yl]pyridine-3-carboxamide] | > 6.70
18 | CC(C)(Oc1ccc(Cl)cc1Cl)C(=O)N[C@H]1C[C@H]2CC[C@@H](C1)N2c1ccc(S(N)(=O)=O)cn1 [Example 125, N-{8-[5-(aminosulfonyl)pyridin-2-yl]-8-azabicyclo[3.2.1]oct-3-endo-yl}-2-[(2,4-dichlorophenyl)oxy]-2-methylpropanamide] | > 6.70
19 | CC(C)(Oc1ccc(Cl)cc1Cl)C(=O)N[C@H]1C[C@H]2CC[C@@H](C1)N2c1ccc(C(=O)NCC(F)(F)C(F)(F)F)cn1 [Example 126, 6-[3-endo-({2-[(2,4-dichlorophenyl)oxy]-2-methylpropanoyl}amino)-8-azabicyclo[3.2.1]oct-8-yl]-N-(2,2,3,3,3-pentafluoropropyl)pyridine-3-carboxamide] | > 6.70
20 | CC(C)(Oc1ncc(Cl)cc1F)C(=O)N[C@H]1C[C@H]2CC[C@@H](C1)N2c1ccc(C(=O)NCC(F)(F)F)cn1 [Example 127, 6-[3-endo-({2-[(5-chloro-3-fluoropyridin-2-yl)oxy]-2-methylpropanoyl}amino)-8-azabicyclo[3.2.1]oct-8-yl]-N-(2,2,2-trifluoroethyl)pyridine-3-carboxamide] | > 6.70
21 | CC(C)(Oc1ccc(OC(F)(F)F)cc1)C(=O)N[C@H]1C[C@H]2CC[C@@H](C1)N2c1ccc(C(=O)NCC(F)(F)F)cn1 [Example 128, 6-(3-endo-{[2-methyl-2-({4-[(trifluoromethyl)oxy]phenyl}oxy)propanoyl]amino}-8-azabicyclo[3.2.1]oct-8-yl)-N-(2,2,2-trifluoroethyl)pyridine-3-carboxamide] | > 6.70
22 | CC(C)(Oc1ccc(Cl)cc1Cl)C(=O)N[C@H]1C[C@H]2CC[C@@H](C1)N2c1ccc(C(=O)NCC(F)(F)F)cc1F [Example 129, 4-[3-endo-({2-[(2,4-dichlorophenyl)oxy]-2-methylpropanoyl}amino)-8-azabicyclo[3.2.1]oct-8-yl]-3-fluoro-N-(2,2,2-trifluoroethyl)benzamide] | > 6.70
23 | CC(C)(Oc1ccc(Cl)cc1Cl)C(=O)N[C@H]1C[C@H]2CC[C@@H](C1)N2c1ccc(C(=O)NC2CC2)c(F)c1 [Example 130, N-cyclopropyl-4-[3-endo-({2-[(2,4-dichlorophenyl)oxy]-2-methylpropanoyl}amino)-8-azabicyclo[3.2.1]oct-8-yl]-2-fluorobenzamide] | > 6.70
24 | CC(C)(Oc1ccc(Cl)cc1Cl)C(=O)N[C@H]1C[C@H]2CC[C@@H](C1)N2c1ncc(C(=O)NCC(F)(F)F)cc1Cl [Example 131, 5-chloro-6-[3-endo-({2-[(2,4-dichlorophenyl)oxy]-2-methylpropanoyl}amino)-8-azabicyclo[3.2.1]oct-8-yl]-N-(2,2,2-trifluoroethyl)pyridine-3-carboxamide] | > 6.70
25 | CC(C)(Oc1ccc(Cl)cc1Cl)C(=O)N[C@H]1C[C@H]2CC[C@@H](C1)N2c1ccc(C(=O)NC2CC2)cc1 [Example 132, N-cyclopropyl-4-[3-endo-({2-[(2,4-dichlorophenyl)oxy]-2-methylpropanoyl}amino)-8-azabicyclo[3.2.1]oct-8-yl]benzamide] | > 6.70
26 | CC(C)(Oc1ccc(Cl)cc1Cl)C(=O)N[C@H]1C[C@H]2CC[C@@H](C1)N2c1ccc(NC(=O)CC(F)(F)F)cc1 [Example 133, N-{4-[3-endo-({2-[(2,4-dichlorophenyl)oxy]-2-methylpropanoyl}amino)-8-azabicyclo[3.2.1]oct-8-yl]phenyl}-3,3,3-trifluoropropanamide] | > 6.70
27 | CC(C)(Oc1ccc(Cl)cc1Cl)C(=O)N[C@H]1C[C@H]2CC[C@@H](C1)N2c1ccc(NC(=O)NCC(F)(F)F)cn1 [Example 134, 2-[(2,4-dichlorophenyl)oxy]-2-methyl-N-{8-[5-({[(2,2,2-trifluoroethyl)amino]carbonyl}amino)pyridin-2-yl]-8-azabicyclo[3.2.1]oct-3-endo-yl}propanamide] | > 6.70
